The values that follow come from ChEMBL document CHEMBL3817834, “Scaffold morphing leading to evolution of 2,4-diaminoquinolines and aminopyrazolopyrimidines as inhibitors of the ATP synthesis pathway” (Medchemcomm, 2016).

The test system of test [1] is Mycobacterium tuberculosis. As to the kind of experiment: Induction of membrane damage in Mycobacterium bovis BCG incubated for 60 mins under dark condition using DiOC2 probe by fluorescence assay. The format is organism-based. The following applies: variant bovis BCG, 1 h.
Test [2] concerns Mycobacterium tuberculosis. As to the kind of experiment: Antimycobacterial activity against Mycobacterium bovis BCG assessed as depletion of intracellular ATP level at 5 times antimycobacterial MIC after 20 hrs by luciferin/luciferase coupled reporter gene assay relative to control. The format is functional, variant bovis BCG. (In a reporter assay the amount or activity of a reporter protein is the signal.)

With `COc1cc2nc(NCCC3CCOCC3)nc(Nc3cc(C(C)(C)C)n(C)n3)c2cc1OC`, the IC50 (as a rule, the midpoint of a concentration-inhibition curve) in test [1] was above 100 µM.

Regarding `COc1nc2ccc(Br)cc2cc1[C@@H](c1ccccc1)[C@@](O)(CCN(C)C)c1cccc2ccccc12` [BEDAQUILINE], the Activity in test [2] worked out at 76%. In test [1], this compound registered an IC50 above 100 µM.

For the compound `CN(C)CCOc1ncc(Nc2cc(-c3ccccc3)nc3cc(-c4ccc(F)cc4)nn23)cc1F`, in test [2], the Activity is 25%. This compound showed an IC50 in test [1] above 100 µM.

Consider `CCOc1ncc(Nc2cc(NCCC3CCOCC3)nc3cc(OC)c(OC)cc23)cc1F`, for which the Activity in test [2] came to 5%. This compound registered an IC50 in test [1] above 100 µM.

On to `CN(C)CCOc1ncc(Nc2cc(N3CCC(c4ccccc4Cl)C3)nc3cc(F)c(F)cc23)cc1F` (stereo not drawn), for which the Activity in test [2] was found to be 25%. The compound further gave an IC50 in test [1] above 100 µM.

On to `COc1cc2nc(N3CCC(c4ccccc4Cl)C3)cc(Nc3cnc(NCCN(C)C)c(F)c3)c2cc1OC` (stereo not drawn), for which the Activity in test [2] turned out to be 22%.

Take `CCOc1ncc(Nc2nc(NCCC3CCOCC3)nc3cc(OC)c(OC)cc23)cc1F`: the Activity in test [2] is given as 31%.

With `CN(C)CCOc1ncc(Nc2cc(-c3ccccc3)nc3cc(-c4ccc(F)cc4)[nH]c23)cc1F`, in test [2], the Activity was determined as 23%. The compound also displayed an IC50 in test [1] above 100 µM.

In turn, `CN(C)CCOc1ncc(Nc2cc(C(F)(F)F)nc3cc(-c4ccc(F)cc4)nn23)cc1F` returned an IC50 in test [1] above 100 µM.

With `N#CC(C#N)=NNc1cccc(Cl)c1` [CARBONYL CYANIDE M-CHLOROPHENYLHYDRAZONE], the IC50 in test [1] worked out at 3 µM.

`NNC(=O)c1ccncc1` [ISONIAZID]: the Activity in test [2] is on record as -6%.

In the case of `COc1cc2nc(N3CCC(c4ccccc4Cl)C3)cc(Nc3cnc(OCCN(C)C)c(F)c3)c2cc1OC` (stereo not drawn), the Activity in test [2] came out at 68%. In addition, the IC50 in test [1] is above 100 µM.
